# Assay results reported in patent US20100298141A1, “SUBSTITUTED PYRIDINE N-OXIDE HERBICIDES” (E. I. DU PONT DE NEMOURS AND COMPANY, priority 2007, published 2010).
# Columns and labels:
# [1] = system: giant foxtail; experiment: Test A pre-/postemergence greenhouse test; format: in vivo, Setaria faberi; conditions: for Foxtail, Giant plant response rating: 0 to 100 scale; for Plant response rating, Foxtail, Giant: 0 to 100 scale where 0 is no effect and 100 is complete control
# Procedure, shortened: (§1)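 Seeds sown in a loam soil–sand blend got a preemergence directed soil spray of compound in a non-phytotoxic solvent mixture containing surfactant. Postemergence sprays of the same formulation went at the same time onto plants 2–10 cm tall at the one- to two-leaf stage. Injury was scored visually against untreated controls after about ten days in the greenhouse.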
# [2] = system: catchweed bedstraw; experiment: Test C pre-/postemergence test; format: in vivo, Galium aparine; conditions: for Plant response rating, Galium: 31 g ai/ha, scale 0 to 100 (0 no effect, 100 complete control)
# Procedure, shortened: (§2)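 Seeds were planted and treated preemergence with test chemical in a non-phytotoxic solvent mixture containing surfactant. Postemergence applications of the same formulation went onto plants 2 to 18 cm tall (1- to 4-leaf stage). A dash marks no test result.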
# [3] = system: eastern black nightshade; experiment: Test C pre-/postemergence test; format: in vivo, Solanum ptycanthum
# Procedure, shortened: as §2
# [4] = system: common (oilseed) sunflower; experiment: Test C pre-/postemergence test; format: in vivo, Helianthus annuus; conditions: for Plant response rating, Sunflower: 31 g ai/ha, scale 0 to 100 (0 no effect, 100 complete control)
# Procedure, shortened: as §2
# [5] = system: wheat; experiment: Test C pre-/postemergence test; format: in vivo, Triticum aestivum; conditions: for Plant response rating, Wheat: 31 g ai/ha, scale 0 to 100 (0 no effect, 100 complete control)
# Procedure, shortened: as §2
# [6] = system: common ragweed; experiment: Test C pre-/postemergence test; format: in vivo, Ambrosia elation
# Procedure, shortened: as §2
# [7] = system: kochia; experiment: Test C pre-/postemergence test; format: in vivo, Kochia scoparia; conditions: for Plant response rating, Kochia: 31 g ai/ha, scale 0 to 100 (0 no effect, 100 complete control)
# Procedure, shortened: as §2
# [8] = system: wheat; experiment: Test A pre-/postemergence greenhouse test; format: in vivo, Triticum aestivum; conditions: for Wheat plant response rating: 0 to 100 scale; for Plant response rating, Wheat: 0 to 100 scale where 0 is no effect and 100 is complete control
# Procedure, shortened: as §1
# [9] = system: morningglory; experiment: Test A pre-/postemergence greenhouse test; format: in vivo, Ipomoea spp.; conditions: for Morningglory plant response rating: 0 to 100 scale; for Plant response rating, Morningglory: 0 to 100 scale where 0 is no effect and 100 is complete control
# Procedure, shortened: as §1
# [10] = system: redroot pigweed; experiment: Test A pre-/postemergence greenhouse test; format: in vivo, Amaranthus retroflexus; conditions: for Pigweed plant response rating: 0 to 100 scale; for Plant response rating, Pigweed: 0 to 100 scale where 0 is no effect and 100 is complete control
# Procedure, shortened: as §1
# [11] = system: blackgrass; experiment: Test C pre-/postemergence test; format: in vivo, Alopecurus myosuroides; conditions: for Plant response rating, Blackgrass: 31 g ai/ha, scale 0 to 100 (0 no effect, 100 complete control)
# Procedure, shortened: as §2
# [12] = system: wild oat; experiment: Test C pre-/postemergence test; format: in vivo, Avena fatua; conditions: for Plant response rating, Oat, Wild: 31 g ai/ha, scale 0 to 100 (0 no effect, 100 complete control)
# Procedure, shortened: as §2
# [13] = system: Surinam grass; experiment: Test C pre-/postemergence test; format: in vivo, Brachiaria decumbens; conditions: for Plant response rating, Surinam Grass: 31 g ai/ha, scale 0 to 100 (0 no effect, 100 complete control)
# Procedure, shortened: as §2
# [14] = system: woolly cupgrass; experiment: Test C pre-/postemergence test; format: in vivo, Eriochloa villosa; conditions: for Plant response rating, Cupgrass, Woolly: 31 g ai/ha, scale 0 to 100 (0 no effect, 100 complete control)
# Procedure, shortened: as §2
# [15] = system: downy brome; experiment: Test C pre-/postemergence test; format: in vivo, Bromus tectorum; conditions: for Plant response rating, Bromegrass, Downy: 31 g ai/ha, scale 0 to 100 (0 no effect, 100 complete control)
# Procedure, shortened: as §2
# [16] = system: cocklebur; experiment: Test C pre-/postemergence test; format: in vivo, Xanthium strumarium; conditions: for Plant response rating, Cocklebur: 31 g ai/ha, scale 0 to 100 (0 no effect, 100 complete control)
# Procedure, shortened: as §2
# [17] = system: velvetleaf; experiment: Test C pre-/postemergence test; format: in vivo, Abutilon theophrasti; conditions: for Plant response rating, Velvetleaf: 31 g ai/ha, scale 0 to 100 (0 no effect, 100 complete control)
# Procedure, shortened: as §2
# [18] = system: giant foxtail; experiment: Test C pre-/postemergence test; format: in vivo, Setaria faberii; conditions: for Plant response rating, Foxtail, Giant: 31 g ai/ha, scale 0 to 100 (0 no effect, 100 complete control)
# Procedure, shortened: as §2
# [19] = system: lambsquarters; experiment: Test C pre-/postemergence test; format: in vivo, Chenopodium album; conditions: for Plant response rating, Lambsquarters: 31 g ai/ha, scale 0 to 100 (0 no effect, 100 complete control)
# Procedure, shortened: as §2
# [20] = Postemergence, 125 g ai/ha, 0 is no effect, 100 is complete control
# [21] = Postemergence, 500 g ai/ha, 0 is no effect, 100 is complete control
# [22] = Preemergence, 125 g ai/ha, 0 no effect, 100 complete control
# [23] = 62 g ai/ha, Preemergence, scale 0 to 100
# [24] = Preemergence, 31 g ai/ha, scale 0 to 100 (0 no effect, 100 complete control)
# [25] = preemergence, 125 g ai/ha, scale 0 (no effect) to 100 (complete control)
# [26] = 125 g ai/ha, preemergence, scale 0 (no effect) to 100 (complete control)
# [27] = preemergence, 250 g ai/ha, scale 0 (no effect) to 100 (complete control)
smiles,measurement,setting,value
Cn1nc(C(F)(F)F)c(C[S+]([O-])c2ccc(Cl)c[n+]2[O-])c1Cl (racemic) [Compound 17],"Foxtail, Giant plant response rating",[1]; [20],80
same,"Foxtail, Giant plant response rating",[1]; [21],90
same,"Foxtail, Giant plant response rating",[1]; [22],100
same,"Plant response rating, Foxtail, Giant","[1]; Preemergence, 500 g ai/ha",100
same,"Plant response rating, Galium",[2]; Preemergence,100
same,"Plant response rating (0 to 100), Galium","[2]; Preemergence, 250 g ai/ha",100
same,Nightshade plant response rating,[3]; [23],100
same,"Plant response rating, Nightshade",[3]; [24],98
same,Sunflower plant response rating,[4]; [23],5
same,"Plant response rating, Sunflower",[4]; Preemergence,0
same,Wheat plant response rating,[5]; [23],30
same,"Plant response rating, Wheat",[5]; Preemergence,10
same,Ragweed plant response rating,[6]; [23],75
same,"Plant response rating, Ragweed",[6]; [24],10
same,Kochia plant response rating,[7]; [23],100
same,"Plant response rating, Kochia",[7]; Preemergence,80
same,Wheat plant response rating,[8]; [20],50
same,Wheat plant response rating,[8]; [21],60
same,Wheat plant response rating,[8]; [22],50
same,"Plant response rating, Wheat","[8]; Preemergence, 500 g ai/ha",80
same,Morningglory plant response rating,[9]; [20],10
same,Morningglory plant response rating,[9]; [21],50
same,Morningglory plant response rating,[9]; [22],10
same,"Plant response rating, Morningglory","[9]; Preemergence, 500 g ai/ha",90
same,Pigweed plant response rating,[10]; [20],40
same,Pigweed plant response rating,[10]; [21],80
same,Pigweed plant response rating,[10]; [22],100
same,"Plant response rating, Pigweed","[10]; Preemergence, 500 g ai/ha",100
same,Blackgrass plant response rating,[11]; [23],80
same,"Plant response rating, Blackgrass",[11]; Preemergence,80
same,"Plant response rating (0 to 100), Blackgrass","[11]; Preemergence, 250 g ai/ha",100
same,Blackgrass plant response rating,[11]; [25],85
same,"Oat, Wild plant response rating",[12]; [23],40
same,"Plant response rating, Oat, Wild",[12]; Preemergence,0
same,Surinam Grass plant response rating,[13]; [23],95
same,"Plant response rating, Surinam Grass",[13]; Preemergence,0
same,"Cupgrass, Woolly plant response rating",[14]; [23],100
same,"Plant response rating, Cupgrass, Woolly",[14]; Preemergence,95
same,"Plant response rating (0 to 100), Cupgrass, Woolly","[14]; Preemergence, 250 g ai/ha",100
same,"Bromegrass, Downy plant response rating",[15]; [23],40
same,"Plant response rating, Bromegrass, Downy",[15]; Preemergence,40
same,"Plant response rating (0 to 100), Bromegrass, Downy","[15]; Preemergence, 250 g ai/ha",85
same,"Bromegrass, Downy plant response rating",[15]; [25],80
same,Cocklebur plant response rating,[16]; [23],0
same,"Plant response rating, Cocklebur",[16]; Preemergence,0
same,Cocklebur plant response rating,[16]; [25],0
same,Velvetleaf plant response rating,[17]; [23],80
same,"Plant response rating, Velvetleaf",[17]; Preemergence,0
same,"Foxtail, Giant plant response rating",[18]; [23],100
same,"Plant response rating, Foxtail, Giant",[18]; Preemergence,95
same,"Plant response rating (0 to 100), Foxtail, Giant","[18]; Preemergence, 250 g ai/ha",100
same,Lambsquarters plant response rating,[19]; [23],100
same,"Plant response rating, Lambsquarters",[19]; Preemergence,100
CCc1cc[n+]([O-])c([S+]([O-])Cc2c(C(F)(F)F)nn(C)c2OCC(F)(F)F)c1 (stereo not drawn) [Compound 59],"Plant response rating, Foxtail, Giant","[1]; Postemergence, 125 g ai/ha",60
same,"Foxtail, Giant plant response rating",[1]; [21],90
same,"Foxtail, Giant plant response rating",[1]; [22],100
same,"Plant response rating, Foxtail, Giant","[1]; Preemergence, 500 g ai/ha",100
same,Galium plant response rating,[2]; [23],100
same,Galium plant response rating,[2]; [26],100
same,"Plant response rating, Galium",[2]; Preemergence,0
same,Galium plant response rating,[2]; [27],100
same,Nightshade plant response rating,[3]; [23],85
same,Nightshade plant response rating,[3]; [27],85
same,Sunflower plant response rating,[4]; [23],85
same,Sunflower plant response rating,[4]; [26],85
same,"Plant response rating, Sunflower",[4]; Preemergence,40
same,Sunflower plant response rating,[4]; [27],100
same,Wheat plant response rating,[5]; [23],40
same,Wheat plant response rating,[5]; [26],85
same,"Plant response rating, Wheat",[5]; Preemergence,30
same,Wheat plant response rating,[5]; [27],95
same,Ragweed plant response rating,[6]; [23],30
same,Ragweed plant response rating,[6]; [26],100
same,Ragweed plant response rating,[6]; [27],100
same,Kochia plant response rating,[7]; [23],70
same,Kochia plant response rating,[7]; [26],100
same,"Plant response rating, Kochia",[7]; Preemergence,0
same,Kochia plant response rating,[7]; [27],100
same,"Plant response rating, Wheat","[8]; Postemergence, 125 g ai/ha",60
same,Wheat plant response rating,[8]; [21],70
same,Wheat plant response rating,[8]; [22],60
same,"Plant response rating, Wheat","[8]; Preemergence, 500 g ai/ha",90
same,"Plant response rating, Morningglory","[9]; Postemergence, 125 g ai/ha",50
same,Morningglory plant response rating,[9]; [21],90
same,Morningglory plant response rating,[9]; [22],70
same,"Plant response rating, Morningglory","[9]; Preemergence, 500 g ai/ha",100
same,"Plant response rating, Pigweed","[10]; Postemergence, 125 g ai/ha",60
same,Pigweed plant response rating,[10]; [21],90
same,Pigweed plant response rating,[10]; [22],100
same,"Plant response rating, Pigweed","[10]; Preemergence, 500 g ai/ha",100
same,Blackgrass plant response rating,[11]; [23],95
same,Blackgrass plant response rating,[11]; [26],95
same,"Plant response rating, Blackgrass",[11]; Preemergence,60
same,Blackgrass plant response rating,[11]; [27],100
same,"Oat, Wild plant response rating",[12]; [23],85
same,"Oat, Wild plant response rating",[12]; [26],90
same,"Plant response rating, Oat, Wild",[12]; Preemergence,60
same,"Oat, Wild plant response rating",[12]; [27],90
same,Surinam Grass plant response rating,[13]; [23],80
same,Surinam Grass plant response rating,[13]; [26],100
same,"Plant response rating, Surinam Grass",[13]; Preemergence,40
same,Surinam Grass plant response rating,[13]; [27],100
same,"Cupgrass, Woolly plant response rating",[14]; [23],80
same,"Cupgrass, Woolly plant response rating",[14]; [26],80
same,"Plant response rating, Cupgrass, Woolly",[14]; Preemergence,0
same,"Cupgrass, Woolly plant response rating",[14]; [27],100
same,"Bromegrass, Downy plant response rating",[15]; [23],40
same,"Bromegrass, Downy plant response rating",[15]; [26],90
same,"Plant response rating, Bromegrass, Downy",[15]; Preemergence,20
same,"Bromegrass, Downy plant response rating",[15]; [27],100
same,Cocklebur plant response rating,[16]; [23],0
same,Cocklebur plant response rating,[16]; [26],30
same,"Plant response rating, Cocklebur",[16]; Preemergence,0
same,Cocklebur plant response rating,[16]; [27],80
same,Velvetleaf plant response rating,[17]; [23],70
same,Velvetleaf plant response rating,[17]; [26],100
same,"Plant response rating, Velvetleaf",[17]; Preemergence,0
same,Velvetleaf plant response rating,[17]; [27],100
same,"Foxtail, Giant plant response rating",[18]; [23],55
same,"Foxtail, Giant plant response rating",[18]; [26],98
same,"Plant response rating, Foxtail, Giant",[18]; Preemergence,35
same,"Foxtail, Giant plant response rating",[18]; [27],100
same,Lambsquarters plant response rating,[19]; [23],100
same,Lambsquarters plant response rating,[19]; [26],100
same,"Plant response rating, Lambsquarters",[19]; Preemergence,80
same,Lambsquarters plant response rating,[19]; [27],100
